This is an account of results in PubChem BioAssay (NCI).

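Results reflect a 48-hour exposure of cells in 96-well plates to compound at five concentrations. At the GI50, growth is halved. At the TGI there is no net growth.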 A value given as a limit tells only on which side of the number the result lay.

Among the test systems are CAKI-1 renal; CCRF-CEM leukemia; EKVX NSCLC; K-562 leukemia; NCI-H460 lung; OVCAR-8 ovarian; RXF 393 renal; SF-268 CNS; SK-MEL-28 melanoma; RPMI-8226 leukemia.
What all share (assay): inhibition of tumour cell growth, NCI panel, 48 h

For the compound `CC(C)=CCc1cc2c(cc1O)OC[C@H]1c3cc4c(cc3O[C@@H]21)OCO4`, the TGI with CAKI-1 renal was > 100 µM; with CCRF-CEM leukemia it was 80.8 µM; in the assay with EKVX NSCLC, 76.9 µM; in the assay with K-562 leukemia it was > 100 µM; with NCI-H460 lung, 44.5 µM; with OVCAR-8 ovarian, > 100 µM. In addition, the TGI in the assay on RXF 393 renal was 48.7 µM; in the assay with SF-268 CNS, > 100 µM; in the assay on SK-MEL-28 melanoma it was > 100 µM.
On to `Cc1ccc2c(C3C(C#N)=C(N)Oc4cc5ccccc5cc43)cc(=O)oc2c1` (stereo not drawn), for which the GI50 in the assay with CCRF-CEM leukemia is 976 nM; in the assay on EKVX NSCLC it was 4.44 µM; with K-562 leukemia, 394 nM; in the assay on NCI-H460 lung, 0.883 µM; in the assay with OVCAR-8 ovarian, 4.47 µM; in the assay with RPMI-8226 leukemia it was 3.23 µM. Further, the GI50 was 671 nM in the assay on RXF 393 renal, 3.07 µM with SF-268 CNS and 12.3 µM with SK-MEL-28 melanoma. The TGI in the assay with CCRF-CEM leukemia was > 100 µM; with EKVX NSCLC, > 100 µM; in the assay with K-562 leukemia, > 100 µM; in the assay with NCI-H460 lung, 15.5 µM; in the assay with OVCAR-8 ovarian it was > 100 µM; in the assay on RPMI-8226 leukemia, 30.2 µM. Also, the TGI in the assay with RXF 393 renal was 6.11 µM; with SF-268 CNS it was > 100 µM; in the assay on SK-MEL-28 melanoma, > 100 µM.
Take `COc1ccc(C(O)(CCC(C)C)C(CN2CCOCC2)c2ccc(Cl)cc2)cc1` (stereo not drawn): the GI50 in the assay on CAKI-1 renal was 14 µM; in the assay with CCRF-CEM leukemia, 13600 nM; with K-562 leukemia, 15100 nM; with NCI-H460 lung, 11.4 µM; in the assay on OVCAR-8 ovarian it was 16.1 µM; in the assay on RPMI-8226 leukemia, 8.76 µM. Further, the GI50 with RXF 393 renal is 6490 nM; in the assay with SF-268 CNS, 14 µM; in the assay with SK-MEL-28 melanoma it was 15.7 µM. Besides, the TGI in the assay with CAKI-1 renal is 31.7 µM; with CCRF-CEM leukemia, 34.8 µM; in the assay on K-562 leukemia it was 47 µM; in the assay with NCI-H460 lung it was 31.6 µM; in the assay with OVCAR-8 ovarian it was 41.5 µM; in the assay on RPMI-8226 leukemia, 31.2 µM. For the same compound, the figures for the TGI with RXF 393 renal, with SF-268 CNS and in the assay on SK-MEL-28 melanoma were 21.7 µM, 29.3 µM and 34.4 µM, respectively.
On to `O=c1[nH]c2ccc(O)cc2o1`, for which the TGI in the assay with CAKI-1 renal, with CCRF-CEM leukemia, in the assay on EKVX NSCLC, with K-562 leukemia, in the assay with NCI-H460 lung and in the assay with OVCAR-8 ovarian was > 100 µM in each case. The TGI in the assay on RXF 393 renal, in the assay with SF-268 CNS and with SK-MEL-28 melanoma was > 100 µM throughout.
As for `Cn1cc(-c2csc(-c3c[nH]c4ccc(Br)cc34)n2)c2cnccc21`, the GI50 in the assay on CCRF-CEM leukemia was 422 nM; in the assay with EKVX NSCLC, 2.5 µM; in the assay on K-562 leukemia, 345 nM; in the assay on NCI-H460 lung, 1.92 µM; in the assay on RPMI-8226 leukemia, 2.13 µM; with RXF 393 renal, 1470 nM. Moreover, the GI50 was 2.83 µM in the assay on SF-268 CNS and 1.7 µM in the assay on SK-MEL-28 melanoma. Further, the TGI in the assay on CCRF-CEM leukemia came out at 1.86 µM; in the assay on EKVX NSCLC it was 6.37 µM; in the assay on K-562 leukemia it was 1.28 µM; with NCI-H460 lung, 3.74 µM; in the assay with RPMI-8226 leukemia it was 4.8 µM; in the assay with RXF 393 renal, 2.96 µM. The TGI with SF-268 CNS came out at 7.96 µM; in the assay on SK-MEL-28 melanoma, 3.31 µM.
`CC(C)=CCc1cc(O)cc2c1OC(C=C(C)C)C1=C2C(=O)C2=C(C1=O)S(=O)(=O)CCN2` (stereo not drawn): the GI50 with CCRF-CEM leukemia was 5810 nM; in the assay on EKVX NSCLC it was 3.3 µM; in the assay on K-562 leukemia, 4680 nM; with NCI-H460 lung, 5.23 µM; in the assay with OVCAR-8 ovarian, 3.09 µM; in the assay with RPMI-8226 leukemia, 4.16 µM. The GI50 with RXF 393 renal was 3020 nM; with SF-268 CNS, 2.91 µM; in the assay on SK-MEL-28 melanoma, 3.12 µM. For the same compound, the TGI in the assay on CCRF-CEM leukemia was > 16.7 µM; with EKVX NSCLC it was 9.16 µM; in the assay on K-562 leukemia it was > 16.7 µM; in the assay on NCI-H460 lung, > 16.7 µM; with OVCAR-8 ovarian, 6.72 µM; with RPMI-8226 leukemia it was 12.2 µM. In addition, the TGI was 12.5 µM in the assay on RXF 393 renal, 8.37 µM in the assay on SF-268 CNS and 6.04 µM with SK-MEL-28 melanoma.
For the compound `C[C@H](Nc1cc(Cl)nc2c1cnn2[C@@H]1O[C@H](COP(=O)(O)CP(=O)(O)O)[C@@H](O)[C@H]1O)c1ccccc1F`, the GI50 in the assay with CAKI-1 renal was > 100 µM; in the assay on CCRF-CEM leukemia, > 100000 nM; in the assay on EKVX NSCLC, > 100 µM; with K-562 leukemia it was > 100000 nM; in the assay with NCI-H460 lung, > 100 µM; in the assay with OVCAR-8 ovarian, > 100 µM. In addition, the GI50 in the assay on RXF 393 renal is > 100000 nM; in the assay with SF-268 CNS, > 100 µM; with SK-MEL-28 melanoma, > 100 µM. Also, the TGI in the assay with CAKI-1 renal, in the assay with CCRF-CEM leukemia, with EKVX NSCLC, with K-562 leukemia, in the assay on NCI-H460 lung and with OVCAR-8 ovarian was > 100 µM each time. The TGI in the assay on RXF 393 renal, in the assay with SF-268 CNS and in the assay on SK-MEL-28 melanoma was > 100 µM each time.
With `COc1ccc(/C(=C\C=C(C#N)C#N)Sc2nc3ccccc3s2)cc1`, the GI50 was 15.8 µM in the assay on CAKI-1 renal; 10.5 µM in the assay with EKVX NSCLC; 1580 nM in the assay with K-562 leukemia; 11.7 µM in the assay on NCI-H460 lung; 13.7 µM in the assay with OVCAR-8 ovarian; 1470 nM in the assay with RXF 393 renal. Further, the GI50 in the assay on SF-268 CNS was 8.53 µM. The TGI was > 50 µM with CAKI-1 renal; 22 µM in the assay with EKVX NSCLC; > 50 µM with K-562 leukemia; > 50 µM in the assay with NCI-H460 lung; 33.9 µM in the assay on OVCAR-8 ovarian; 2.97 µM in the assay on RXF 393 renal. Moreover, in the assay on SF-268 CNS, the TGI was determined as 25.2 µM.
With `COc1ccc(-c2cc(/C=C/C(=O)c3ccc(OC)c(OC)c3)[nH]n2)cc1`, the GI50 in the assay on CAKI-1 renal is 1.55 µM; in the assay with CCRF-CEM leukemia, 1340 nM; in the assay on K-562 leukemia it was 1280 nM; with NCI-H460 lung, 1.64 µM; in the assay with OVCAR-8 ovarian, 2.16 µM; in the assay with RPMI-8226 leukemia, 0.32 µM. Further, the GI50 was 1390 nM in the assay on RXF 393 renal, 1.94 µM in the assay on SF-268 CNS and 1.65 µM with SK-MEL-28 melanoma. Moreover, the TGI in the assay on CAKI-1 renal came out at 3.52 µM; in the assay with CCRF-CEM leukemia, 4.14 µM; in the assay with K-562 leukemia it was 10.7 µM; in the assay with NCI-H460 lung, 4.34 µM; in the assay on OVCAR-8 ovarian, 10.4 µM; in the assay on RPMI-8226 leukemia, 1.33 µM. The TGI with RXF 393 renal amounted to 2.94 µM; in the assay with SF-268 CNS it was 4.83 µM; in the assay on SK-MEL-28 melanoma, 3.07 µM.
